Experimental data published in patent publication US11918662B2, “Heterocyclic compounds and imaging agents for imaging huntingtin protein” (CHDI Foundation, Inc., priority 2020, dated 2024).
Where two headings read alike, the source gives them in different places.

Target: T1, MBP-HTT(1-89)Q46-His(6×) (“Exon1-Q46”) protein aggregates (Homo sapiens, UniProt P42858, INS38QQQQQQQQQQQQQQQQQQQQQQQQQ)
T1 construct: MBP-HTT(1-89)Q46-His(6×); His(6×) (C); made in house
Assay: Exon1-Q46 Radioligand Binding Assay

[1] = displacement of 0.3 nM [3H3-methyl]-5-((5-methoxypyridin-2-yl)methoxy)-2-(pyrazin-2-yl)benzo[d]oxazole from 1 μM aggregated Exon1-Q46, 60 minutes at 37° C., read-out: Potency Range (IC50)

T1 sequence (P42858 with tags, fused parts or gaps with the stated changes limits assumed): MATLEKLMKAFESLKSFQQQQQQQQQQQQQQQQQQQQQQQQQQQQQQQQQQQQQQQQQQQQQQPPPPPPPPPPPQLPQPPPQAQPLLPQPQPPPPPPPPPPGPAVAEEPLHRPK

| Structure (SMILES) | IC50 [1] [µM] | IC50 [µM] |
| --- | --- | --- |
| Cn1ncc2c(=O)n(CCC(=O)Nc3ccc(F)cc3F)c3cc(F)c(F)cc3c21 [Example 21-1] | < 0.1 |  |
| Cn1ncc2c(=O)n(CCC(=O)Nc3ccc(F)cc3F)c3ccc(F)cc3c21 [Example 21-2] | < 0.1 |  |
| Cn1ncc2c(=O)n(CCC(=O)Nc3ccc(F)cc3F)c3cccc(F)c3c21 [Example 21-3] | < 0.1 |  |
| Cn1ccc2c3ccc(F)cc3n(CCC(=O)Nc3ccc(F)cc3F)c(=O)c21 [Example 22-1, N-(2,4-Difluorophenyl)-3-{7-fluoro-3-methyl-4-oxo-3H,4H,5H-pyrrolo[2,3-c]quinolin-5-yl}propanamide] | < 0.1 |  |
| CCC[CH2][Sn]([CH2]CCC)([CH2]CCC)[c]1ccc(NC(=O)CCn2c(=O)c3cnn(C)c3c3ccc(F)cc32)c(F)c1 [Example 24-1, 3-{7-Fluoro-1-methyl-4-oxo-1H,4H,5H-pyrazolo[4,3-c]quinolin-5-yl}-N-[2-fluoro-4-(tributylstannyl)phenyl]propanamide] |  | < 0.1 |
| Cn1ncc2c(=O)n(CCC(=O)Nc3ccc(F)cc3F)c3c[c]([Sn]([CH3])([CH3])[CH3])ccc3c21 [Example 26-1, N-(2,4-difluorophenyl)-3-[1-methyl-4-oxo-7-(trimethylstannyl)-1H,4H,5H-pyrazolo [4,3-c]quinolin-5-yl]propanamide] |  | < 0.1 |
| O=C(CCCn1c(=O)c2cccn2c2ccc(F)cc21)N1CCOCC1 [Example 29-1] | < 0.1 |  |
| CC1CC(C)CN(C(=O)CCCn2c(=O)c3cccn3c3ccccc32)C1 (centres unmarked) [Example 29-2] | < 0.1 |  |
| O=C(Cn1c(=O)c2cccn2c2ccc(F)cc21)N1CCCCC1 [Example 29-3] | < 0.1 |  |
| Cc1ccc(NC(=O)CCn2c(=O)c3cccn3c3ccccc32)cc1 [Example 29-4] | < 0.1 |  |
| O=C(CCCn1c(=O)c2cccn2c2ccc(Br)cc21)N1CCCCC1 [Example 29-5] | < 0.1 |  |
